# Measured values taken from patent EP1234508A1, “Antiprotozoal methods, compositions and feedstuffs” (UNIVERSITEIT GENT, priority 2001, dated 2002).
# Assay: Onset of egg laying and egg weight in hens treated via drinking water, Example 3
# Assay type: in vivo
# Experimental: The end of the development of the reproductive organ of laying hens starts on the age of 15 weeks and continues during 7 weeks. 10 laying hens were treated with L-arginine via drinking water from the age of 15 weeks till the age of 21 weeks and 10 laying hens were used as a control group. L-arginine was dosed at 15 mg per kg weight per day. L-arginine free base or a L-arginine salt such as hydrochloride may be given daily in a dose of about 5 - 200 mg up to 5 to about 1000 mg per kg bodyweight per day. Light schemes were taken into account: 8 hours light at the age of 15 and 16 weeks old, 9 hours at 17 weeks, 10 hours at 18 weeks, 11 hours at 19 weeks, 12 hours at 20 weeks and 13 hours at 21 weeks old. The treatment with L-arginine was started on the age of 15 weeks. After 40 days of treatment, 3 of 10 chickens treated with L-arginine started laying while one chicken of the control group started laying four days later (Fig. 5). It is unexpected that the onset of egg-laying is earlier than in the control group which is a commercially important aspect of the present invention. The average weight of the eggs (number of eggs ≥ 3) was above 50 g after 46 days in the treated group while in the control group after 54 days the average weight of at least 3 eggs was above 50 g (Fig 6). Again this improvement is unexpected and is of commercial value.
smiles,measurement,setting,value
"N=C(N)NCCCC(N)C(=O)O [L-arginine, 2-amino-5-guanidinovaleric acid]",chickens started laying,"after 40 days of treatment, 15 mg per kg weight per day via drinking water from the age of 15 weeks, Fig. 5",3 of 10
same,average weight of the eggs (number of eggs ≥ 3),"after 46 days in the treated group, 15 mg per kg weight per day via drinking water, Fig. 6",above 50 g
